# Results taken from patent US12398107B2, “Fungicidal nitroanilino substituted pyrazoles” (FMC Corporation, priority 2018, dated 2025).
# What was measured:
# Format in all cases: in vivo
# Phakopsora pachyrhizi = test: Test D: Asian soybean rust, preventive spray on soybean seedlings; conditions: 50 ppm, 100 = 100% disease control, 0 = no control
# In short: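 Soybean seedlings sprayed to run-off with compound suspension (ppm, in 50/50 acetone/water with 250 ppm PEG400), inoculated next day with P. pachyrhizi spores, held 24 h saturated at 22°C then 8 days at 22°C. Visual rating 0-100% disease control relative to controls.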
# [1] = tested on: Puccinia recondita f. sp. tritici; test: Test B: wheat leaf rust, preventive spray on wheat seedlings; conditions: 50 ppm, 100 = 100% disease control, 0 = no control relative to controls
# In short: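 Wheat seedlings got a run-off spray (ppm, acetone/water 50/50, 250 ppm PEG400) and one day later a spore inoculum. After 24 h at 20° C. in saturated air and 7 days at 20° C., disease was scored as % control relative to controls (100 = full control).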
# Alternaria solani = test: Test F: tomato early blight, preventive spray on tomato seedlings; conditions: 50 ppm, 100 = 100% disease control, 0 = no control
# In short: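 Preventive test: one day after seedlings were sprayed to run-off with ppm-level suspensions (acetone/water 50/50, 250 ppm PEG400), A. solani spore inoculation followed. Incubation was 48 h at 27° C in saturated air plus 3 days at 20° C; disease control was scored visually versus controls (100 = full control).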
# Septoria tritici = test: Test A: wheat leaf blotch, preventive spray on wheat seedlings; conditions: 50 ppm, 100 = 100% disease control, 0 = no control relative to controls
# In short: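 Preventive test: seedlings sprayed to run-off one day before Septoria tritici spore inoculation, with ppm doses in acetone/water containing 250 ppm PEG400. After 48 h at 24 °C in saturated air and 17 days at 20 °C, plants were scored 0–100 for disease control versus untreated controls.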
# Botrytis cinerea = test: Test E: tomato Botrytis, preventive spray on tomato seedlings; conditions: 50 ppm, 100 = 100% disease control, 0 = no control
# In short: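 Preventive test: spore inoculation one day after run-off spraying of compound suspension (3% acetone, acetone/water 50/50, 250 ppm PEG400). Incubation 20 °C saturated humidity for 48 h, followed by 3 days at 24 °C growth chamber; disease control scored visually, 100 = full control.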
# [2] = tested on: Blumeria graminis f. sp. tritici; test: Test C: wheat powdery mildew, preventive spray on wheat seedlings; conditions: 50 ppm, rated after 8 days, 100 = 100% disease control, 0 = no control
# In short: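 Wheat seedlings got a run-off spray of test suspension (ppm in acetone/water 50/50, 250 ppm PEG400, acetone 3% of volume), then spore-dust inoculation with wheat powdery mildew one day later. After 8 days' growth-chamber incubation at 20° C, disease control scored visually on a 0–100 scale versus untreated controls.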
Compound,Test D disease control rating (Asian soybean rust) (Phakopsora pachyrhizi) [%],Test B disease control rating (wheat leaf rust) [1] [%],Test F disease control rating (tomato early blight) (Alternaria solani) [%],Test A disease control rating (wheat leaf blotch) (Septoria tritici) [%],Test E disease control rating (tomato Botrytis) (Botrytis cinerea) [%],Test C disease control rating (wheat powdery mildew) [2] [%],"pest or weed control at 50 ppm (Phakopsora pachyrhizi; Phakopsora pachyrhizi, read-out: Test D disease control rating (Asian soybean rust)) [%]",pest or weed control at 50 ppm ([1]; read-out: Test B disease control rating (wheat leaf rust)) [%],"pest or weed control at 50 ppm (Alternaria solani; Alternaria solani, read-out: Test F disease control rating (tomato early blight)) [%]","pest or weed control at 50 ppm (Septoria tritici; Zymoseptoria tritici, read-out: Test A disease control rating (wheat leaf blotch)) [%]","pest or weed control at 50 ppm (Botrytis cinerea; Botrytis cinerea, read-out: Test E disease control rating (tomato Botrytis)) [%]","pest or weed control at 50 ppm ([2]; Blumeria graminis, 192 h, read-out: Test C disease control rating (wheat powdery mildew)) [%]"
Cc1cccc([N+](=O)[O-])c1Nc1c(-c2ccc(Cl)cc2Cl)c(C)nn1C [Compound 144],69,68,0,100,0,35,–,–,–,–,–,–
Cc1nn(C)c(Nc2c(F)cc(Br)cc2[N+](=O)[O-])c1-c1ccc(C#N)cc1Cl [Compound 155],0,99,93,99,100,90,–,–,–,–,–,–
Cc1nn(C)c(Nc2c(F)cc(F)cc2[N+](=O)[O-])c1-c1ccc(F)cc1Br [Compound 51],79,100,99,100,98,100,–,–,–,–,–,–
COc1ccc(Nc2c(-c3ccc(F)cc3Br)c(C)nn2C)c([N+](=O)[O-])c1 [Compound 52],59,100,94,100,99,90,–,–,–,–,–,–
Cc1nn(C)c(Nc2c(Cl)cc(Cl)cc2[N+](=O)[O-])c1-c1ccc(F)cc1Cl [Compound 59],96,100,92,100,99,99,–,–,–,–,–,–
Cc1ccc(Nc2c(-c3ccc(F)cc3Br)c(C)nn2C)c([N+](=O)[O-])c1 [Compound 90],0,95,9,100,99,87,–,–,–,–,–,–
Cc1nn(C)c(Nc2ccc(Cl)cc2[N+](=O)[O-])c1-c1c(F)cccc1Cl [Compound 22],0,93,64,100,99,97,–,–,–,–,–,–
Cc1cc(Cl)c(Nc2c(-c3ccc(F)cc3F)c(C)nn2C)c([N+](=O)[O-])c1 [Compound 15],61,100,53,100,99,98,–,–,–,–,–,–
Cc1nn(C)c(Nc2ccccc2[N+](=O)[O-])c1-c1c(F)cccc1Cl [Compound 136],0,80,0,100,99,88,–,–,–,–,–,–
CCc1nn(C)c(Nc2c(F)cc(F)cc2[N+](=O)[O-])c1-c1ccc(F)cc1F [Compound 50],0,98,98,100,92,100,–,–,–,–,–,–
Cc1nn(C)c(Nc2c(Cl)cccc2[N+](=O)[O-])c1-c1ccc(C#N)cc1Cl [Compound 123],0,97,66,100,100,81,–,–,–,–,–,–
Cc1nn(C)c(Nc2c(Cl)cccc2[N+](=O)[O-])c1-c1c(F)cc(F)cc1Br [Compound 163],78,100,76,99,88,98,–,–,–,–,–,–
Cc1nn(C)c(Nc2c(F)cc(F)cc2[N+](=O)[O-])c1-c1c(F)cccc1Cl [Compound 39],73,100,99,100,88,99,–,–,–,–,–,–
Cc1nn(C)c(Nc2c(Cl)cccc2[N+](=O)[O-])c1-c1c(F)cccc1Cl [Compound 38],0,99,0,100,88,95,–,–,–,–,–,–
COc1ccc(-c2c(C)nn(C)c2Nc2c(Cl)cc(C)cc2[N+](=O)[O-])c(Cl)c1 [Compound 66],97,100,96,100,98,98,–,–,–,–,–,–
Cc1nn(C)c(Nc2cccc(Cl)c2[N+](=O)[O-])c1-c1c(F)cccc1F [Compound 99],0,0,0,99,24,0,–,–,–,–,–,–
Cc1nn(C)c(Nc2c(Cl)cccc2[N+](=O)[O-])c1-c1ccc(F)cc1Br [Compound 41],77,100,0,100,77,94,–,–,–,–,–,–
Cc1ccc(Nc2c(-c3ccc(C#N)cc3Cl)c(C)nn2C)c([N+](=O)[O-])c1 [Compound 14],48,97,83,100,96,83,–,–,–,–,–,–
CCc1nn(C)c(Nc2ccc(OC)cc2[N+](=O)[O-])c1-c1ccc(F)cc1Cl [Compound 173],0,100,93,100,98,98,–,–,–,–,–,–
Cc1nn(C)c(N(C)c2c(F)cccc2[N+](=O)[O-])c1-c1ccc(F)cc1Cl [Compound 172],–,–,–,–,–,–,0,100,40,100,99,100
Cc1nn(C)c(Nc2c(F)cc(Br)cc2[N+](=O)[O-])c1-c1ccc(Cl)cc1Cl [Compound 132],0,98,96,100,99,47,–,–,–,–,–,–
